US8871753B2, “Macrocyclic compounds and their use as kinase inhibitors” (Incyte Corporation, priority 2008, dated 2014)
Where a name gives a salt, the structure may show the parent alone. Read-outs that look alike come from different tables or passages of the source.

Columns and labels:
Type in all cases: biochemical
[1] = target: T1, human JAK1 (a.a. 837-1142) (Homo sapiens, UniProt P23458); experiment: In vitro JAK kinase assay (HTRF, phosphorylation of a biotinylated peptide), JAK1; conditions: read-out: JAK1 IC50
T1 construct: human JAK1 (a.a. 837-1142); His tag (N); made in house; host or cells: insect cells (baculovirus)
T1 sequence (P23458 849-1154): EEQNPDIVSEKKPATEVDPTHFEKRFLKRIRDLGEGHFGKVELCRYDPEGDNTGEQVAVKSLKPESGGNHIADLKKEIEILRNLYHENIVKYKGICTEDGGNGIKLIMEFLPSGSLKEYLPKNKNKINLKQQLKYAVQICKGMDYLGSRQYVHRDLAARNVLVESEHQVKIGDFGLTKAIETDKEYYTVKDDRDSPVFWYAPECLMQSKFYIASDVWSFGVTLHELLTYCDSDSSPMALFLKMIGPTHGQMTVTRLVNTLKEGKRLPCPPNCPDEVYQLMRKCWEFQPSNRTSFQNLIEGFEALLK
Summary of the method: (§1)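 Phosphorylation of a biotinylated peptide by the JAK kinase domain, detected by HTRF with Eu-Py20 and SA-APC. ATP was 90 μM for JAK1, 30 μM for JAK2 and 3 μM for JAK3. Reactions ran 1 h at room temperature and were stopped with EDTA, followed by 40 min antibody binding.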

[2] = target: T2, human JAK2 (a.a. 828-1132) (Homo sapiens, UniProt O60674); experiment: In vitro JAK kinase assay (HTRF, phosphorylation of a biotinylated peptide), JAK2
T2 construct: JAK2 (a.a. 828-1132); His tag (N); made in house; host or cells: insect cells (baculovirus)
T2 sequence (O60674 828-1132): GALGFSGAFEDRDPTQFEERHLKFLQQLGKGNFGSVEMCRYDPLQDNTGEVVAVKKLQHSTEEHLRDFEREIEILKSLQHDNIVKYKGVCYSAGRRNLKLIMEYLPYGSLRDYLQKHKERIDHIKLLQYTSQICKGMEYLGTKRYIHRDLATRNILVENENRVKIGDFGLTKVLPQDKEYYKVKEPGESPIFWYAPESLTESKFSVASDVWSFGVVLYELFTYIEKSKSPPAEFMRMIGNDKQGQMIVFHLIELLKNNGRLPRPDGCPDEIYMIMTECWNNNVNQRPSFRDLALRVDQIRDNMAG
Summary of the method: as §1

[3] = target: T3, human JAK3 (a.a. 781-1124) (Homo sapiens, UniProt P52333); experiment: In vitro JAK kinase assay (HTRF, phosphorylation of a biotinylated peptide), JAK3
T3 construct: JAK3 (a.a. 781-1124); His tag (N); made in house; host or cells: insect cells (baculovirus)
T3 sequence (P52333 781-1124): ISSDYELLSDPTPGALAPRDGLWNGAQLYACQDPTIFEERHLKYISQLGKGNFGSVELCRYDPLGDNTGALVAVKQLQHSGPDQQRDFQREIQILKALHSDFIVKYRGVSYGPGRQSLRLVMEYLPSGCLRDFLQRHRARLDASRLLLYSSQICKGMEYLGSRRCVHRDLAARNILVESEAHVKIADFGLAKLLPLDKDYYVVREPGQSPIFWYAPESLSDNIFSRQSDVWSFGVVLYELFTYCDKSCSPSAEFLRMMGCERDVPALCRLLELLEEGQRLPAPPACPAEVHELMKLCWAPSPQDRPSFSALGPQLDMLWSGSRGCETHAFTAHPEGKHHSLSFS
Summary of the method: as §1

TYK2 = TYK2 (Homo sapiens, UniProt P29597); experiment: TYK2 kinase inhibition (Table A1)
TYK2, sequence (P29597 whole entry): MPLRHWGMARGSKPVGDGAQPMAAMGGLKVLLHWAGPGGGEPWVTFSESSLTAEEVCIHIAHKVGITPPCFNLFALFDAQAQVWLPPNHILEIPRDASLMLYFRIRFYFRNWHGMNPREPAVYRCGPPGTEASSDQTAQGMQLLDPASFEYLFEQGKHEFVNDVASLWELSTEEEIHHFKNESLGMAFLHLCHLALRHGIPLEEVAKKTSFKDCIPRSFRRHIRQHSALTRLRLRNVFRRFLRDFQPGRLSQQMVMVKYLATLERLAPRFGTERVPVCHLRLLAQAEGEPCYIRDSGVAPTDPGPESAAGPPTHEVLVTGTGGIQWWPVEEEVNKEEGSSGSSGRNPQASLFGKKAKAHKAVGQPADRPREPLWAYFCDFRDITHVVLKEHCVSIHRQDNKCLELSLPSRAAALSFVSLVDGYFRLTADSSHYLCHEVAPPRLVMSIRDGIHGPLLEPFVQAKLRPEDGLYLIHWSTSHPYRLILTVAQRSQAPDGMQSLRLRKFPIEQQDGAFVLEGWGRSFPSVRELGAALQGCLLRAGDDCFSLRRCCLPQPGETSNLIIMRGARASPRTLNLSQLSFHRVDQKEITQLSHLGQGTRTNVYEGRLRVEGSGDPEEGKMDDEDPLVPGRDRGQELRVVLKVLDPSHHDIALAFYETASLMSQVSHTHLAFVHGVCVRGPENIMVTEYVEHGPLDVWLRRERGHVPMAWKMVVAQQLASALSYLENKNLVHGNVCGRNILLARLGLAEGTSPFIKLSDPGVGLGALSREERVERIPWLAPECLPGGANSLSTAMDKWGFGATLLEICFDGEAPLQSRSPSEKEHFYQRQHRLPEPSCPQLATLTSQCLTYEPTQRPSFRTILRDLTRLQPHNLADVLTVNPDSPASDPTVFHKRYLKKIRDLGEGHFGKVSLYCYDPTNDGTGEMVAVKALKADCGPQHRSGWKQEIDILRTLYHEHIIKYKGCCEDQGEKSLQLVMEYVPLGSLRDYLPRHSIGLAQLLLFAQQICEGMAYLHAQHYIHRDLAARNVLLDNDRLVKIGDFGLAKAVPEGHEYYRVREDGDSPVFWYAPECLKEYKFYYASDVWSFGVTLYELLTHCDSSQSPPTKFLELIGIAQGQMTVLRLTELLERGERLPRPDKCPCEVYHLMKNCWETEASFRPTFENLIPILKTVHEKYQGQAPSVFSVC

[4] = target: T4, Recombinant Human Anaplastic Lymphoma Kinase (Homo sapiens, UniProt Q9UM73); experiment: ALK HTRF kinase assay
T4 construct: purchased Invitrogen, Carlsbad, Calif
T4 sequence (Q9UM73 19-1620): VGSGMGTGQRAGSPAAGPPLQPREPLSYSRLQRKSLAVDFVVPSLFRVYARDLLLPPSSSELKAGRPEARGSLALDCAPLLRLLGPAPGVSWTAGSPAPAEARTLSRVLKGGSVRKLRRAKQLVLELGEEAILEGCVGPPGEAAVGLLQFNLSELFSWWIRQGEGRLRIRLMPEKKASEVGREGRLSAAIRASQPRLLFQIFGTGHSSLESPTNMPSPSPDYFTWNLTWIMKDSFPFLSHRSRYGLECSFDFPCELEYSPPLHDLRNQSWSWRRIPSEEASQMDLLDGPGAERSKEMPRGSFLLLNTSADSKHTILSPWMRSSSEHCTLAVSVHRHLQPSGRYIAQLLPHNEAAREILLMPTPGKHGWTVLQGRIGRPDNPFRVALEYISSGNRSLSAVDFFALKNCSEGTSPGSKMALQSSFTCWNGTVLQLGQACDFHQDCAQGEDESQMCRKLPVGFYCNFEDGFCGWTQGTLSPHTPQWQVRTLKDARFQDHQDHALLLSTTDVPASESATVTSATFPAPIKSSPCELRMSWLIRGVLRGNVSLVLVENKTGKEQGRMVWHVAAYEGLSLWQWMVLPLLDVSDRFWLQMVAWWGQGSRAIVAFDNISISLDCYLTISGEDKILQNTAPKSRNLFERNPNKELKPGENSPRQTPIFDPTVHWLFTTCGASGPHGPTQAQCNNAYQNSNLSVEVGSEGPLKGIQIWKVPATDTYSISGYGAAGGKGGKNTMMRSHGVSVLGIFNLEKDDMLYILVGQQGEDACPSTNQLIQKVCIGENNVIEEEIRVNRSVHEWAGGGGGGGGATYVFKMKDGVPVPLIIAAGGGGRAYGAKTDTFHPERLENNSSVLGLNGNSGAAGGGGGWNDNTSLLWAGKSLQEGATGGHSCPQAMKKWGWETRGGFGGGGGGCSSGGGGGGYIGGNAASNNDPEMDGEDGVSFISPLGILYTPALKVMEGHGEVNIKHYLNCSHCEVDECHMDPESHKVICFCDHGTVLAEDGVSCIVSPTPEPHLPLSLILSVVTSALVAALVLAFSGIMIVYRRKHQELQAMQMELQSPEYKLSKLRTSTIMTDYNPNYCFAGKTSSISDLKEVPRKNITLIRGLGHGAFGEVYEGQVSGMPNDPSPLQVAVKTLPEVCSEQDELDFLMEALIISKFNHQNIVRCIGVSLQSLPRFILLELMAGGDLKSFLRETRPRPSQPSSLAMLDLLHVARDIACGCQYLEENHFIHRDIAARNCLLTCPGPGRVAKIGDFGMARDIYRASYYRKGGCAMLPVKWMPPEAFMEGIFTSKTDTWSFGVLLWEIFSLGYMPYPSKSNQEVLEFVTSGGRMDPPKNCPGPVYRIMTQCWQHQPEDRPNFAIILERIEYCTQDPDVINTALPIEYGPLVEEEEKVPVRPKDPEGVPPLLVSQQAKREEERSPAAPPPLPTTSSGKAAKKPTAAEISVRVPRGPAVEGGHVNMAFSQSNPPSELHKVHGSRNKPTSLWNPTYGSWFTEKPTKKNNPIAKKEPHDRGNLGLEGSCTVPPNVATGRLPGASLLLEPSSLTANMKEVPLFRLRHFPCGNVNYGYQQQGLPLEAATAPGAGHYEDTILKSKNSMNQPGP
Summary of the method: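 Readout was HTRF between a Eu-W1024 anti-phosphotyrosine antibody and streptavidin-APC bound to biotinylated peptide phosphorylated by recombinant human ALK. IC50 values came from a four-parameter logistic fit.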

[5] = Table B1, cells without percent sign
[6] = method AA1 (90 μM ATP) or AA2 (1000 μM ATP), not stated per value
[7] = method AA1 (30 μM ATP) or AA2 (1000 μM ATP), not stated per value
[8] = method AA1 (3 μM ATP) or AA2 (1000 μM ATP), not stated per value
[9] = compound at 500 nM or 1 mM, 90 μM ATP
[10] = compound at a concentration of 500 nM or 1 mM (not specified), cells shown as percentage

| SMILES | IC50 ([1]; Table B1) [nM] | IC50 ([2]; Table B1) [nM] | IC50 ([3]; Table B1) [nM] | IC50 (TYK2; Table B1) [nM] | further results |
| --- | --- | --- | --- | --- | --- |
| O=C(Nc1ccc2cc1CCc1cccc(c1)Nc1ncc(Cl)c(n1)N2)C1CCCN(C(=O)c2ccccc2)C1 (stereo not shown) [Example A48, 1-Benzoyl-N-[6-chloro-2,4,8,22-tetraazatetracyclo[14.3.1.1(3,7).1(9,13)]docosa-1(20),3(22),4,6,9(21),10,12,16,18-nonaen-12-yl]piperidine-3-carboxamide trifluoroacetate] |  |  |  |  | IC50 [1, 6]: 27 nM; IC50 [2, 7]: 13 nM; IC50 [3, 8]: 56 nM; IC50 (TYK2): 92 nM; ALK % of inhibition at a concentration of 500 nM or 1 mM [4, 9]: 28% |
| O=C(Nc1ccccc1Cl)Nc1ccc2cc1CCc1cccc(c1)Nc1ncc(Cl)c(n1)N2 [Example B84, N-(2-Chlorophenyl)-N′-[6-chloro-2,4,8,22-tetraazatetracyclo[14.3.1.1(3,7).1(9,13)]docosa-1(20),3(22),4,6,9(21),10,12,16,18-nonaen-12-yl]urea trifluoroacetate] | 0.39 | 1.3 | 9.7 | 4.2 | IC50 [4, 5]: 730 nM |
| CN(C)c1ccc(C(=O)Nc2ccc3cc2CCc2cccc(c2)Nc2ncc(Cl)c(n2)N3)cc1 [Example B82, N-[6-Chloro-2,4,8,22-tetraazatetracyclo[14.3.1.1(3,7).1(9,13)]docosa-1(20), 3(22),4,6,9(21),10,12,16,18-nonaen-12-yl]-4-(dimethylamino)benzamide bis(trifluoroacetate)] | 7.9 | 7.6 | 44 | 14 | ALK % of inhibition at a concentration of 500 nM or 1 mM [4, 10]: 39% |
| Cc1csc(NC(=O)Nc2ccc3cc2CCc2cccc(c2)Nc2ncc(Cl)c(n2)N3)c1 [Example B120, N-[6-Chloro-2,4,8,22-tetraazatetracyclo[14.3.1.1(3,7).1(9,13)]docosa-1(20), 3(22),4,6,9(21),10,12,16,18-nonaen-12-yl]-N′-(4-methyl-2-thienyl)urea trifluoroacetate] | 6.7 | 7.9 | 68 | 25 | ALK % of inhibition at a concentration of 500 nM or 1 mM [4, 10]: 16% |
| O=S(=O)(Nc1cc2cc(c1)OCCSc1cccc(c1)Nc1nc(ncc1Cl)N2)c1ccccc1 [Example D68, N-[6-Chloro-17-oxa-14-thia-2,4,8,24-tetraazatetracyclo[16.3.1.1(3,7).1(9,13)]tetracosa-1(22),3(24),4,6,9(23),10,12,18,20-nonaen-20-yl]benzenesulfonamide trifluoroacetate] |  |  |  |  | IC50 ([1]; Table D1): 14 nM; IC50 ([2]; Table D1): 5.8 nM; IC50 ([3]; Table D1): 36 nM; IC50 (TYK2; Table D1): 32 nM; IC50 ([4]; Table D1, 90 μM ATP): 340 nM |
| COC(=O)c1ccc2cc1CCc1cccc(c1)Nc1ncc(Cl)c(n1)N2 [Example B22, Methyl 6-chloro-2,4,8,22-tetraazatetracyclo[14.3.1.1(3,7).1(9,13)]docosa-1(20),3(22),4,6,9(21),10,12,16,18-nonaene-12-carboxylate trifluoroacetate] | 144 | 11 | 104 | 41 | IC50 [4, 5]: 1440 nM |
| NCC(=O)Nc1ccc2cc1CCc1cccc(c1)Nc1ncc(Cl)c(n1)N2 [Example A107, 2-Amino-N-[6-chloro-2,4,8,22-tetraazatetracyclo[14.3.1.1(3,7).1(9,13)]docosa-1(20),3(22),4,6,9(21),10,12,16,18-nonaen-12-yl]acetamide bis(trifluoroacetate)] |  |  |  |  | IC50 [1, 6]: 4 nM; IC50 [2, 7]: 10 nM; IC50 [3, 8]: 8.2 nM; IC50 (TYK2): 4.2 nM; ALK % of inhibition at a concentration of 500 nM or 1 mM [4, 9]: 39% |
| O=S(=O)(Nc1ccc2cc1CCc1cccc(c1)Nc1ncc(Cl)c(n1)N2)c1cccc(C(F)(F)F)c1 [Example B163, N-[6-Chloro-2,4,8,22-tetraazatetracyclo[14.3.1.1(3,7).1(9,13)]docosa-1(20), 3(22),4,6,9(21),10,12,16,18-nonaen-12-yl]-3-(trifluoromethyl)benzenesulfonamide trifluoroacetate] | 0.54 | 0.24 | 1.1 | 0.97 | ALK % of inhibition at a concentration of 500 nM or 1 mM [4, 10]: 80% |
| O=C(Nc1cc2cc(c1)OCCSc1cccc(c1)Nc1nc(ncc1Cl)N2)c1ccno1 [Example D59, N-[6-Chloro-17-oxa-14-thia-2,4,8,24-tetraazatetracyclo[16.3.1.1(3,7).1(9,13)]tetracosa-1(22),3(24),4,6,9(23),10,12,18,20-nonaen-20-yl]isoxazole-5-carboxamide trifluoroacetate] |  |  |  |  | IC50 ([1]; Table D1): 2.3 nM; IC50 ([2]; Table D1): 0.6 nM; IC50 ([3]; Table D1): 7.1 nM; IC50 (TYK2; Table D1): 2.1 nM; IC50 ([4]; Table D1, 90 μM ATP): 200 nM |
| Cc1oncc1S(=O)(=O)N1CCC(CC(=O)Nc2ccc3cc2CCc2cncc(c2)Nc2ncc(Cl)c(n2)N3)CC1 [Example A200, N-[6-Chloro-2,4,8,18,22-pentaazatetracyclo[14.3.1.1(3,7).1(9,13)]docosa-1(20),3(22),4,6,9(21),10,12,16,18-nonaen-12-yl]-2-{1-[(5-methylisoxazol-4-yl)sulfonyl]piperidin-4-yl}acetamide bis(trifluoroacetate)] |  |  |  |  | IC50 [1, 6]: 8.5 nM; IC50 [2, 7]: 101 nM; IC50 [3, 8]: > 200 nM; IC50 (TYK2): > 200 nM; ALK % of inhibition at a concentration of 500 nM or 1 mM [4, 9]: 25% |
| Cc1ccc(C(=O)Nc2ccc3cc2CCc2cccc(c2)Nc2ncc(Cl)c(n2)N3)cc1 [Example B47, N-[6-Chloro-2,4,8,22-tetraazatetracyclo[14.3.1.1(3,7).1(9,13)]docosa-1(20), 3(22),4,6,9(21),10,12,16,18-nonaen-12-yl]-4-methylbenzamide trifluoroacetate] | 0.7 | 1.5 | 9.5 | 3.2 | IC50 [4, 5]: 180 nM |
| O=C(CC1CCN(c2ncc(F)cn2)CC1)Nc1ccc2cc1CCc1cncc(c1)Nc1ncc(Cl)c(n1)N2 [Example A169, N-[6-Chloro-2,4,8,18,22-pentaazatetracyclo[14.3.1.1(3,7).1(9,13)]docosa-1(20),3(22),4,6,9(21),10,12,16,18-nonaen-12-yl]-2-[1-(5-fluoropyrimidin-2-yl)piperidin-4-yl]acetamide tris(trifluoroacetate)] |  |  |  |  | IC50 [1, 6]: 26 nM; IC50 [2, 7]: 131 nM; IC50 [3, 8]: > 1000 nM; IC50 (TYK2): 319 nM; ALK % of inhibition at a concentration of 500 nM or 1 mM [4, 9]: 23% |

Further lines, with some results ahead:

| IC50 ([1]; Table B1) [nM] | IC50 ([2]; Table B1) [nM] | IC50 ([3]; Table B1) [nM] | IC50 (TYK2; Table B1) [nM] | SMILES | further results |
| --- | --- | --- | --- | --- | --- |
| 62 | 42 | 76 | 357 | Cc1ncoc1C(=O)Nc1cc2cc(c1)Nc1nc(ncc1Cl)Nc1cccc(c1)CC2 [Example B210, N-[6-Chloro-2,4,8,22-tetraazatetracyclo[14.3.1.1(3,7).1(9,13)]docosa-1(20),3(22),4,6,9(21),10,12,16,18-nonaen-11-yl]-4-methyl-1,3-oxazole-5-carboxamide trifluoroacetate] | IC50 [4, 5]: > 1000 nM |
| 21 | 23 | 308 | 341 | Fc1ccc(CN2CCN(Cc3cc4cc(c3)Nc3nc(ncc3Cl)Nc3cccc(c3)CC4)CC2)cc1 [Example B192, 6-Chloro-11-{[4-(4-fluorobenzyl)piperazin-1-yl]methyl}-2,4,8,22-tetraazatetracyclo[14.3.1.1(3,7).1(9,13)]docosa-1(20),3(22),4,6,9(21),10,12,16,18-nonaene tris(trifluoroacetate)] | IC50 [4, 5]: > 1000 nM |
| 58 | 300 | > 400 | 90 | COc1cccc(N2CCN(C(=O)Nc3ccc4cc3CCc3cncc(c3)Nc3ncc(Cl)c(n3)N4)CC2)c1 [Example B304, N-[6-Chloro-2,4,8,18,22-pentaazatetracyclo[14.3.1.1(3,7).1(9,13)]docosa-1(20),3(22),4,6,9(21),10,12,16,18-nonaen-12-yl]-4-(3-methoxyphenyl)piperazine-1-carboxamide tris(trifluoroacetate)] | ALK % of inhibition at a concentration of 500 nM or 1 mM ([4]; percentage inhibition of the example compound at a concentration of 500 nM or 1 mM (not specified which)): 67% |
| 20 | 279 | > 10000 | 607 | O=C(Nc1ccc2cc1CCc1cncc(c1)Nc1ncc(Cl)c(n1)N2)N[C@H]1CCN(C(=O)c2cc(C3CC3)on2)C1 [Example B270, N-[6-Chloro-2,4,8,18,22-pentaazatetracyclo[14.3.1.1(3,7).1(9,13)]docosa-1(20),3(22),4,6,9(21),10,12,16,18-nonaen-12-yl]-N′-{(3S)-1-[(5-cyclopropylisoxazol-3-yl)carbonyl]pyrrolidin-3-yl}urea bis(trifluoroacetate)] | ALK % of inhibition at a concentration of 500 nM or 1 mM [4, 10]: 10% |
| 15 | 27 | 124 | 62 | CC(C)(C)OC(=O)N1CC[C@@H](NC(=O)Nc2ccc3cc2CCc2cccc(c2)Nc2ncc(Cl)c(n2)N3)C1 [Example B174, tert-Butyl (3R)-3-[({[6-chloro-2,4,8,22-tetraazatetracyclo[14.3.1.1(3,7).1(9,13)]docosa-1(20),3(22),4,6,9(21),10,12,16,18-nonaen-12-yl]amino}carbonyl)amino]pyrrolidine-1-carboxylate] | ALK % of inhibition at a concentration of 500 nM or 1 mM [4, 10]: 12% |
